{"source": "patent US6492338B1", "about": "“Therapeutic agents” (Takara Shuzo Co., Ltd., priority 1998, dated 2002)", "key": {"[1]": {"tested_on": "alcohol dehydrogenase (ADH)", "test": "ADH inhibitory activity, NAD/ethanol, absorbance at 340 nm", "format": "biochemical", "settings": "final concentration 10.8 μg/ml (IC50 for AR activity)", "description": "Next, 2,5-dihydroxytetrahydro-2-furancarboxylic acid was added to an ADH reaction system to determine the ADH inhibitory activity.\nA commercially available lyophilized product (Nacalai Tesque, code 012-83) was dissolved in water for use as ADH. NAD (Nacalai Tesque) as a hydrogen donor and ethanol (Nacalai Tesque) as a substrate for the enzyme were used.\nThe ADH activity was measured as follows.\n50 μl of water, 20 μl of 3 mM aqueous NAD solution and 10 μl of enzyme solution were added to 100 μl of 200 mM phosphate buffer (pH 6.2). 10 μl of sterile pure water was further added to the mixture. After 10 μl of 60% ethanol was added thereto, the change in absorbance at 340 nm was monitored at room temperature for 3 minutes. The enzymatic activity was determined on the basis of the change in absorbance per minute.\nNext, aqueous solution of 2,5-dihydroxytetrahydro-2-furancarboxylic acid at a final concentration of 10.8 μg/ml and sterile pure water were added to the reaction system as described above in place of 10 μl of sterile pure water. The enzymatic activity was then determined as described above. The ADH enzymatic activity inhibition rate was calculated according to the above-mentioned equation based on the enzymatic activity."}, "Aldose reductase (AR)": {"molecular_target": "T1, Aldose reductase (AR) (Homo sapiens, UniProt P15121)", "T1 construct": "purchased Wako Pure Chemical Industries 012-13991", "test": "AR (aldose reductase) inhibitory activity, NADPH/methylglyoxal, absorbance at 340 nm", "format": "biochemical", "description": "2,5-dihydroxytetrahydro-2-furancarboxylic acid was added to an AR reaction system to determine the AR inhibitory activity.\nNADPH (Nacalai Tesque) as a hydrogen donor and methylglyoxal (Nacalai Tesque) as a substrate for the enzyme were used. A commercially available enzyme solution (Wako Pure Chemical Industries, code 012-13991) was diluted. for use as AR.\nThe AR activity was measured as follows.\n40 μl of sterile pure water, 20 μl of 1 mM aqueous NADPH solution and 10 μl of enzyme dilution were added to 100 μl of 200 mM phosphate buffer (pH 6.2). 10 μl of sterile pure water was further added to the mixture. After 20 μl of 100 mM aqueous methylglyoxal solution was added thereto, the change in absorbance at 340 nm was monitored at room temperature for 3 minutes. The enzymatic activity was determined on the basis of the change in absorbance per minute. Next, aqueous solution of 2,5-dihydroxytetrahydro-2-furancarboxylic acid at a varying concentration was added to the reaction system as described above in place of 10 μl of sterile pure water. The enzymatic activity was then determined as described above.\nThe AR inhibitory activity of 2,5-dihydroxytetrahydro-2-furancarboxylic acid was determined based on the enzymatic activity inhibition rate calculated according to the following equation:\nEnzymatic activity inhibition rate (%)={1-(enzymatic activity with the addition of aqueous 2,5-dihydroxytetrahydro-2-furancarboxylic acid solution)/(enzymatic activity with the addition of water)}×100."}}, "data": [{"smiles": "O=C(O)C1(O)CCC(O)O1", "note": "(stereo not drawn) [2,5-dihydroxytetrahydro-2-furancarboxylic acid]", "values": [{"measurement": "ADH activity inhibition rate", "setting": "[1]", "result": 7.1, "unit": "%"}, {"measurement": "IC50", "setting": "Aldose reductase (AR); calculated from concentration and AR activity inhibition rate of Table 1, read-out: concentration in the enzymatic reaction mixture that results in the activity inhibition rate of 50% (IC50), AR (converted)", "result": "~72.9", "unit": "µM"}, {"measurement": "Activity inhibition rate (AR)", "setting": "Aldose reductase (AR); concentration in enzymatic reaction system 0.5 μg/ml", "result": 8.1, "unit": "%"}, {"measurement": "Activity inhibition rate (AR)", "setting": "Aldose reductase (AR); concentration in enzymatic reaction system 5 μg/ml", "result": 34.8, "unit": "%"}, {"measurement": "Activity inhibition rate (AR)", "setting": "Aldose reductase (AR); concentration in enzymatic reaction system 50 μg/ml", "result": 81.6, "unit": "%"}, {"measurement": "Activity inhibition rate (AR)", "setting": "Aldose reductase (AR); concentration in enzymatic reaction system 500 μg/ml", "result": 96.3, "unit": "%"}]}]}
